From patent publication US6362166B1, “Antipicornaviral compounds and methods for their use and preparation” (Agouron Pharmaceuticals, Inc., priority 1996, dated 2002) come the findings set out here.

Like-named read-outs stand apart in the source and are kept apart here. Some results are limits rather than exact numbers.

For one series, the system named is HRV-14. The series can be described thus: Antirhinoviral HI-HeLa Cell Culture Assay (Cell Protection Assay, XTT dye reduction). Conditions: HI-HeLa cells infected with HRV-14, m.o.i. 0.13, two days, XTT, read-out: EC50. It is filed as cell-based, human rhinovirus (HRV) serotype-14. The procedure, abridged: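 Protection measured via XTT dye reduction (450/650 nm) two days after compound treatment of HI-HeLa cells, mock-infected or infected with cDNA-derived HRV-14 at m.o.i. 0.13. CC50 divided by EC50 gives the therapeutic index.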
(In general: Tetrazolium assays rely on reduction of a dye to a coloured formazan, in cell work by metabolically active cells.)

In series [1] the target is T1, Recombinant Rhinovirus 3C protease (RVP) serotype 2 (Human rhinovirus 2, UniProt P04936).
T1 construct: Recombinant Rhinovirus 3C proteases from serotypes 14, 16, 2 or 89; made in house
The series can be described thus: Inhibition of Rhinovirus Protease (fluorescence resonance energy transfer assay), serotype 2. It is filed as biochemical, human rhinovirus (HRV). Here is the method: (§1) Stock solution (50 mM, in DMSO) of various compounds were prepared; dilutions were in the same solvent. Recombinant Rhinovirus 3C proteases from serotypes 14, 16, 2 or 89 were prepared by the following standard chromatographic procedures: (1) ion exchange using Q Sepharose Fast Flow from Pharmacia; (2) affinity chromatography using Affi-Gel Blue from Biorad; and (3) sizing using Sephadex G-100 from Pharmacia. Assays contained 2% DMSO, 50 mM tris pH 7.6, 1 mM EDTA, a compound at the indicated concentrations, approximately 1 μM substrate, and 50-100 nM protease. […] The kobs/I values were obtained from reactions initiated by addition of enzyme rather than substrate. RVP activity is measured in the fluorescence resonance energy transfer assay. The substrate was (N-terminal) DABCYL-([…]Gyl)-EDANS. In the uncleaved peptide, the EDANS fluorescence was quenched by the proximal DABCYL moeity. When the peptide was cleaved, the quenching was relieved, and activity was measured as an increase in fluorescence signal.
(§2) In the above table, all data is RVP serotype-14 unless otherwise noted in parentheses. All strains of human rhinovirus (HRV) were purchased from American Type Culture Collection (ATCC), except for serotype 14, which was produced from the infectious cDNA clone constructed and supplied to us by Dr. Roland Rueckert at the Institute for Molecular Virology, University of Wisconsin, Madison, Wisc. […] The data in the column designated kobs/I was measured from progress curves in enzyme start experiments.

Series [2] deals with HI-HeLa cells. The series can be described thus: Cytotoxicity in mock-infected HI-HeLa cells (antirhinoviral assay, XTT). It is filed as cell-based.
Series [3] relates to Human Rhinovirus-serotype 10 (HRV-10). The series can be described thus: Normal Human Bronchial Epithelial Cell Assay (MTT). It is filed as cell-based. Particulars: normal human bronchial cells, HRV-10 at m.o.i. 10, 3-4 days at 34° C., read-out: ED50 (the source's name). The protocol:
Normal human bronchial cells were obtained from cadavers and cultured. The cells were plated at 2×10^4 per well in a […] plate. They were allowed to adhere and grow for 24 hours in 200 μL of serum-free bronchial/tracheal epithelial cell growth medium at 37° C. with 5% CO2. Human Rhinovirus-serotype 10 (HRV-10) was purchased from American Type Culture Collection (ATCC). To start the assay, the supernatant was removed, and HRV-10 at an m.o.i. of 10 (virus particles/cell) was added to each well along with the appropriate amount of compound of formula I or II. The plate was then incubated at 34° C. After 3 hours the supernatant was removed, and 200 μL of media was added along with the same concentration of compound as used in the beginning of the assay. The plates were incubated for 3-4 days at 34° C. To determine the amount of cell growth, an MTT assay (0.5 mgs/mL), as described in Mosmann, T. J. J. Immunol. Methods 1983, 65, 55-63, which is incorporated herein by reference, was performed on the cells, and the plate was read at an optical density of 540 nm. The compounds were tested against control compound Pirodavir, obtained from Janssen Pharmaceuticals. The EC50 was measured as described above for the HI-HeLa Cell Culture Assay.

For series [4], the system named is HI-HeLa cells. The series can be described thus: Cytotoxicity in mock-infected HI-HeLa cells (anticoxsackieviral assay, XTT). It is filed as cell-based. Here is the method: (§3) The ability of compounds to protect calls against CVB-3 infection was measured by the XTT dye reduction method, which is described in Weislow, O. S., R. Kiser, D. L. Fine, J. Bader, R. H. Shoemaker, and M. R. Boyd, 1989, J. Natl. Cancer Inst. 81:577-586, which is incorporated herein by reference. Specifically, HI-HeLa cells were infected wtih […] at a multiplicity of infection (m.o.i.) of 0.08 or mock-infected with medium only. Infected or mock-infected cells were resuspended at 8×10^5 cells per mL and incubated with appropriate concentrations of compound. One day later, XTT/PMS were added to test plates and the amount of formazan produced was quantified spectrophotometrically at 450/650 nm. […] The therapeutic index (TI) was calculated by dividing the CC50 by the EC50.
(§4) The Coxsackie strain B-3 (CVB-3) was purchased from American Type Culture Collection (ATCC). Virus stocks were propgated and antiviral assays were performed in Hi-HeLa cells (ATCC). Cells were grown in Minimal Essential Medium with 10% fetal bovine serum.

The next series relates to CVB-3. Kind of series: Anticoxsackieviral HI-HeLa Cell Culture Assay (XTT dye reduction). It is filed as cell-based, Coxsackie strain B-3 (CVB-3). Conditions: HI-HeLa cells infected with CVB-3, m.o.i. 0.08, one day. The protocol:
Specifically, HI-HeLa cells were infected wtih […] at a multiplicity of infection (m.o.i.) of 0.08 or mock-infected with medium only. Infected or mock-infected cells were resuspended at 8×10^5 cells per mL and incubated with appropriate concentrations of compound. One day later, XTT/PMS were added to test plates and the amount of formazan produced was quantified spectrophotometrically at 450/650 nm. […] The therapeutic index (TI) was calculated by dividing the CC50 by the EC50.
as §4

Series [5] deals with T2, Recombinant Rhinovirus 3C protease (RVP) serotype-14 (Human rhinovirus 14, UniProt P03303).
T2 construct: Recombinant Rhinovirus 3C proteases from serotypes 14, 16, 2 or 89; made in house
The series can be described thus: Inhibition of Rhinovirus Protease (fluorescence resonance energy transfer assay), serotype 14. It is filed as biochemical, human rhinovirus (HRV).

The target in series [6] is T3, Recombinant Rhinovirus 3C protease (RVP) serotype 89 (Human rhinovirus A serotype 89, UniProt P07210).
T3 construct: Recombinant Rhinovirus 3C proteases from serotypes 14, 16, 2 or 89; made in house
Kind of series: Inhibition of Rhinovirus Protease (fluorescence resonance energy transfer assay), serotype 89. It is filed as biochemical, human rhinovirus (HRV). Here is the method:
as §1
In the above table, all data is RVP serotype-14 unless otherwise noted in parentheses. […] The data in the column designated kobs/I was measured from progress curves in enzyme start experiments.

Series [7] in a line: Cytotoxicity in mock-infected HI-HeLa cells (antirhinoviral assay, XTT). It is filed as cell-based. Particulars: human; mock-infected HI-HeLa cells; two days; XTT; read-out: CC50.
Series [8] is described as follows: Cytotoxicity in mock-infected HI-HeLa cells (anticoxsackieviral assay, XTT). It is filed as cell-based. Particulars: human; mock-infected HI-HeLa cells; one day; XTT. Here is the method: as §3, §4
The target of series [9] is T4, Recombinant Rhinovirus 3C protease (RVP) serotype 16 (Human rhinovirus 16, UniProt Q82122).
T4 construct: Recombinant Rhinovirus 3C proteases from serotypes 14, 16, 2 or 89; made in house
Kind of series: Inhibition of Rhinovirus Protease (fluorescence resonance energy transfer assay), serotype 16. It is filed as biochemical, human rhinovirus (HRV). Conditions: pH 7.6; RVP serotype 16; progress curves in enzyme start experiments; read-out: kobs/I. Here is the method: as §1, §2

Where [10] appears, read: progress curves in enzyme start experiments.
The mark [11] stands for this setting: pH 7.6, progress curves in enzyme start experiments, read-out: kobs/I.

T2 sequence (P03303 1538-1719): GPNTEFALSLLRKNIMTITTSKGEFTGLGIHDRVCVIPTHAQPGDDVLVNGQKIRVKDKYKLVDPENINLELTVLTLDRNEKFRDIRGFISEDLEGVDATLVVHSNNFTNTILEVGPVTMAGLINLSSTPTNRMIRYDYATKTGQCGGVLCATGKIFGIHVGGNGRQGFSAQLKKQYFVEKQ
T1 sequence (P04936 1508-1690): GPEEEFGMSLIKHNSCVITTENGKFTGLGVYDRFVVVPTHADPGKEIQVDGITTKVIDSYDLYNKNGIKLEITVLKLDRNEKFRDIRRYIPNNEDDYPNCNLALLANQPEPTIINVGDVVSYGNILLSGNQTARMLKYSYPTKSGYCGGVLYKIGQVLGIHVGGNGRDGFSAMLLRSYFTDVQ
T3 sequence (P07210 1522-1704): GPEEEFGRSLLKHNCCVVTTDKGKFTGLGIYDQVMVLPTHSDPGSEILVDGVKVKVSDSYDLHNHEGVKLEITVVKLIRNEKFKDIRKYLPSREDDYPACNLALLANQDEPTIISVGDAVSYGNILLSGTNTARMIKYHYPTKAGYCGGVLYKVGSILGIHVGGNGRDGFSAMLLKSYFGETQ
T4 sequence (Q82122 1511-1693): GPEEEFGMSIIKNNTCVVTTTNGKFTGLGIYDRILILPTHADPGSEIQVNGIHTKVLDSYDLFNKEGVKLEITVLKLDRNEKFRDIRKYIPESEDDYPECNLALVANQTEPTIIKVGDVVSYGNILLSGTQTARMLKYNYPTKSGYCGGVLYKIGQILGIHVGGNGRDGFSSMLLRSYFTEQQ

As usually defined, the CC50 is the concentration giving 50% cytotoxicity. Consider `CCOC(=O)/C=C/[C@H](CCC(N)=O)NC(=O)[C@H](Cc1ccccc1)NC(=O)[C@H](CC(C)C)NC(=O)OCc1ccccc1` [Compound 3, Ethyl-3-(CBZ-L-Leu-L-Phe-L-Gln)-E-Propenoate], for which the results for the EC50 (in the series on HRV-14; in series [3]; with CVB-3) were 0.61 µM, 0.04 µM and 39.8 µM, respectively. For the same compound, the kobs/I in [1] (setting [10]) is listed as 1,900 M-1 sec-1; in series [5] (RVP serotype-14, progress curves in enzyme start experiments) it was 37,000 M-1 sec-1; in [6] (setting [10]), 3,400 M-1 sec-1. For the same compound, the half-maximal cytotoxic concentration (CC50) in the series on HI-HeLa cells [2] and in the series on HI-HeLa cells [4] was greater than 320 µM throughout. For the same compound, in series [5] (RVP serotype-14, 0.1 μM compound, 10 minute preincubation with 50 nM RVP), the “INHIB (percent inhibition)” value is reported as 81(0.1) percent.
The term Ki denotes a measure of affinity in units of concentration, obtained from inhibition or displacement. With `CC(=O)/C=C/[C@H](CCC(N)=O)NC(=O)[C@H](Cc1ccccc1)NC(=O)[C@H](CC(C)C)NC(=O)OCc1ccccc1` [Compound 13, 4-(CBZ-L-Leu-L-Phe-L-Gln)-E-3-Butene-2-one], the EC50 was 2 µM in the series on HRV-14 (Rhinovirus B, HRV14, 48 h); 0.0004 µM in [3] (Epithelial cell); greater than 100 µM with CVB-3 (24 h). The kinact/KI in series [1] (setting [11]) worked out at 2400 M⁻¹ s⁻¹; in series [9] it was 9000 M⁻¹ s⁻¹; in series [5] (pH 7.6, read-out: kobs/I), 54000 M⁻¹ s⁻¹; in series [6] (setting [11]), 5500 M⁻¹ s⁻¹. Moreover, the CC50 at 2 days in [7] turned out to be 58.9 µM. Further, the CC50 at 1 day in series [8] was greater than 100 µM. The inhibition constant (Ki) in series [5] worked out at 6.5 µM.
